Experiment [1] relates to pigs. Description: Pig growth trial, 9 weeks (Example 11). It is filed as in vivo. An excerpt: Seventy-two pigs weighing approximately 20kg. each were allocated into 8 matched treatment groups of 9 pigs, on the basis of sex and live weight. Each treatment group was allocated to one particular diet, and each animal in each group was fed individually on its appropriate diet, accurately weighed according to a feeding scale based on live weight, and adjusted weekly. The daily live weight gain in gammes (DLWG) and food conversion ratio (FCR -- the ratio of kg. feed per kg. of live weight gain) were determined for each group at the end of a 9 week trial period.

The test system of experiment [2] is chickens. Description: Chicken growth trial, chromomycin A3 (Example 12). It is filed as in vivo. The text has this: (§1) Groups of 20 randomised 1-day old chickens were place in small floor pens, bedded with wood shavings and provided with automatic drinking fountains. The birds in 16 randomly chosen such pens were fed for 6 days on a nutritionally balanced control diet containing no known growth promoter, and the birds in other pens (four pens per treatment diet) were fed for the same period on the same basal diet to which the indicated weight of mixed mithramycins obtained as in Example 2 or 3, or a known chicken growth promoter, penicillin or nitrovin as a positive control, was added. At the end of the test period, the mean weight per bird in the control group and each test group was determined and the percentage weight increase for each test group as compared with the control group was calculated. The following results were obtained:
The procedure described in Example 4 was repeated, using chromomycin A3, obtained from Takeda Chemical Industries Ltd., Osaka, Japan, instead of the mixed mithramycins.

Experiment [3] relates to chickens. Description: Chicken growth trial, magnesium chelate of mithramycin A from S. argillaceus (Example 9). It is filed as in vivo. To be noted: * P<0.001.
Source text: The procedure described in Example 4 was repeated, using the magnesium chelate of mithramycin A, obtained in known manner from fermentation of S. argillaceus A.T.C.C.
Experiment [4] concerns chickens. Description: Chicken growth trial, 1-day old chickens, 6 days (Example 4). It is filed as in vivo. Particulars: for Mean final weight per bird: * significant at p<0.001.
Source text: as §1, with “calculated.” for “calculated. The following results were obtained:”

The test system of experiment [5] is discard cockerels. Briefly: Growth trial in discard cockerels, 4 weeks (Example 10). The experiment is classed as in vivo, chicken. To be noted: 10 ppm in basal diet.
Source text: as §1
The procedure described in Example 4 was repeated using 4 pens each of 30 discard cockerels for each diet, and allowing the trial to run for 4 weeks.

Experiment [6] concerns chickens. Briefly: Chicken growth trial, mixed mithramycins from Streptomyces argillaceus (Example 7). It is filed as in vivo.
Source text: as §1
The procedure described in Example 4 was repeated, using the mixed mithramycins obtained by culturing Streptomyces argillaceus A.T.C.C. 12956 in known manner, and the following results were obtained: […]

The subject of experiment [7] is chickens. Briefly: Chicken growth trial, magnesium chelate of Example 2 (Example 8). Particulars: * P<0.001. The experiment is classed as in vivo.
Experimental: Groups of 20 randomised 1-day old chickens were place in small floor pens, bedded with wood shavings and provided with automatic drinking fountains. […] At the end of the test period, the mean weight per bird in the control group and each test group was determined and the percentage weight increase for each test group as compared with the control group was calculated.
For experiment [8], the system named is chickens. Description: Chicken growth trial, pen of 20 birds (Example 5). It is filed as in vivo. To be noted: for Mean final weight-20 birds: mean total weight of a pen of 20 birds.
Source text: as §1
In a further growth trial, the procedure described in Example 4 was repeated. In this case, the weights are expressed as the mean total weight of a pen of 20 birds.

Where [9] appears, read: 10 ppm in basal diet, nitrovin * p<0.001, chromomycin A3 *** p<0.05.

`COC(=O)N/N=C/c1c[n+]([O-])c2ccccc2[n+]1[O-]` [carbadox]: the “FCR (food conversion ratio)” value in experiment [1] (high copper diet, 20 ppm, * significant at p<0.05) was 2.184 kg. feed per kg. of live weigh; in experiment [1] (low copper diet, 20 ppm) it was 2.292 kg. feed per kg. of live weigh. Besides, the “DLWG (daily live weight gain)” value in experiment [1] (high copper diet, 20 ppm, ** significant at p<0.01) is 672.7 gammes; in experiment [1] (low copper diet, 20 ppm, * significant at p<0.05), 630.6 gammes.

As to `CO[C@@H]1[C@H](O)C[C@@H](O[C@@H]2C[C@H](Oc3cc4cc5c(c(O)c4c(O)c3C)C(=O)[C@@H](O[C@H]3C[C@@H](O[C@H]4C[C@@H](O[C@H]6C[C@](C)(O)[C@@H](OC(C)=O)[C@H](C)O6)[C@H](O)[C@@H](C)O4)[C@H](O)[C@@H](C)O3)[C@H]([C@H](OC)C(=O)[C@@H](O)[C@@H](C)O)C5)O[C@H](C)[C@@H]2OC(C)=O)O[C@@H]1C` [chromomycin A3], the “% effect v. control” value was 7.3% in experiment [2] (5 ppm in basal diet) and 5.4% in experiment [2] (10 ppm in basal diet). Moreover, the “Mean final weight per bird” value in experiment [2] (5 ppm in basal diet, ** significant at p<0.01) stood at 44.51 g; in experiment [2] (setting [9]) it was 43.68 g.

With `N=C(N)NN=C(/C=C/c1ccc([N+](=O)[O-])o1)/C=C/c1ccc([N+](=O)[O-])o1` [nitrovin], the “% effect v. control” value in experiment [3] (10 ppm in basal diet) amounted to 10.6%; in experiment [6] (10 ppm in basal diet), 12.9%; in experiment [2] (10 ppm in basal diet), 9.7%; in experiment [7] (10 ppm in basal diet) it was 10.6%; in experiment [8] (10 ppm in basal diet), 11.6%. The “Mean final weight per bird” value in experiment [3] (10 ppm in basal diet) came to 45.67 g; in experiment [4] (10 ppm in basal diet), 42.99 g; in experiment [5] (mixed mithramycins * significant at p<0.01, nitrovin unmarked) it was 339 g; in experiment [2] (setting [9]), 45.46 g; in experiment [7] (10 ppm in basal diet), 45.67 g. Besides, the “% effect v. control (weight increase)” value in experiment [4] (10 ppm in basal diet) is recorded as 12.7%. Further, the “DLWG (daily live weight gain)” value in experiment [1] (high copper diet, 10 ppm) worked out at 579.2 gammes; in experiment [1] (low copper diet, 10 ppm) it was 567.0 gammes. For the same molecule, the “FCR (food conversion ratio)” value in experiment [1] (high copper diet, 10 ppm) is 2.308 kg. feed per kg. of live weigh; in experiment [1] (low copper diet, 10 ppm), 2.381 kg. feed per kg. of live weigh. Besides, the Food conversion ratio in experiment [5] (** significant at p<0.001) was determined as 1.800. The “Mean final weight per birds” value in experiment [6] (10 ppm in basal diet) is 45.2 g. Besides, the “Mean final weight-20 birds” value in experiment [8] (10 ppm in basal diet) stood at 826 g.

`CC1(C)S[C@@H]2[C@H](NC(=O)Cc3ccccc3)C(=O)N2[C@H]1C(=O)O` [penicillin]: the “% effect v. control” value in experiment [3] (25 ppm in basal diet) came to 16.1%; in experiment [6] (25 ppm in basal diet), 18.8%; in experiment [2] (25 ppm in basal diet), 12.7%; in experiment [7] (25 ppm in basal diet), 16.1%; in experiment [8] (25 ppm in basal diet), 18.25%. Moreover, the “Mean final weight per bird” value amounted to 47.95 g in experiment [3] (25 ppm in basal diet); 42.57 g in experiment [4] (25 ppm in basal diet); 46.73 g in experiment [2] (25 ppm in basal diet, * significant at p<0.001); 47.95 g in experiment [7] (25 ppm in basal diet). Besides, the “% effect v. control (weight increase)” value in experiment [4] (25 ppm in basal diet) is given as 11.6%. Also, the “Mean final weight per birds” value in experiment [6] (25 ppm in basal diet) worked out at 47.6 g. Moreover, in experiment [8] (25 ppm in basal diet), the “Mean final weight-20 birds” value turned out to be 876 g.

Values taken from patent US4141974A, “Veterinary method employing certain aureolic acid compounds” (Imperial Chemical Industries Limited, priority 1976, dated 1979).
